# Laboratory results from patent publication US8383640B2, “Substituted pyrimidine ether compounds and use thereof” (priority 2007, dated 2013).
# Like-named read-outs stand apart in the source and are kept apart here.
# Columns and labels:
# corn rust = experiment: Fungicidal activity in vivo, corn rust; settings: 25 mg/L, plants sprayed, scored after 1 week
# Procedure: (§1) Determination of Fungicidal Activity In Vivo:
# (§2) Compounds were disolved into acetone to receive stock solution. Deionized water containing 0.1% Tween 80 was added in the previous solution to receive 20 ml test solution. Plants are sprayed by using a turntable sprayer. After 24 hours, plants were innoculated with a conidial suspension. Plants were then transferred into a dew chamber [R.H. (relative humidity)>95%] for infection. After this treatment, plants were removed from the chamber to the greenhouse for normal maintaining, After the infection period, the plants were placed in the greenhouse. After 1 week, the plants were scored for disease control.
# cucumber anthracnose = experiment: Fungicidal activity in vivo, cucumber anthracnose; settings: plants sprayed, scored after 1 week
# Procedure: as §1, §2
# cucumber downy mildew = experiment: Fungicidal activity in vivo, cucumber downy mildew; settings: plants sprayed, scored after 1 week
# Procedure: as §1, §2
# rice blast = format: cell-based; settings: in vitro, 24 hours incubation
# tomato late blight = format: cell-based; settings: in vitro, 25 mg/L, 24 hours incubation
# carmine spider mite eggs = experiment: Inhibition activity on carmine spider mite eggs; format: in vivo
# [1] = system: mite (Tetranychus cinnabarinus); experiment: Acaricidal activity, airbrush spray, mite; settings: mortality after 2-3 days
# Procedure: Compounds were dissolved in mixed solvent (acetone: methanol=1:1), and diluted to required concentration with water containing 0.1% of Tween 80.
# The second instar larvae of armyworm (Spodoptera exigua), diamond backmoth (Plutella xylostella), green peach aphids (Myzus persicae) and mite (Tetranychus cinnabarinus) were used in biological test. The method was employed either spraying by airbrush. A test solution (0.5 ml) was sprayed at the pressure of 0.7 kg/cm^2. Percent mortality was determined after 2-3 days.
# [2] = system: nymph of carmine spider mite; experiment: Control on nymph of carmine spider mite; format: in vivo
# [3] = system: diamond backmoth (Plutella xylostella); experiment: Insecticidal activity, airbrush spray, diamond backmoth; format: in vivo; settings: 600 mg/L, mortality after 2-3 days
# [4] = system: armyworm (Spodoptera exigua); experiment: Insecticidal activity, airbrush spray, armyworm; format: in vivo; settings: 600 mg/L, mortality after 2-3 days
# cucumber grey mold = experiment: Fungicidal activity in vitro, cucumber grey mold; format: cell-based; settings: 2.8 mg/L, 24 hours incubation
# wheat powdery mildew = experiment: Fungicidal activity in vivo, wheat powdery mildew; settings: plants sprayed, scored after 1 week
# Procedure: as §1, §2
SMILES,control of cucumber anthracnose (cucumber anthracnose; 25 mg/L),control of cucumber anthracnose (cucumber anthracnose; 400 mg/L),control of cucumber downy mildew (cucumber downy mildew; 400 mg/L),control of rice blast (rice blast; 8.3 mg/L),control of rice blast (rice blast; 25 mg/L),control of tomato late blight (tomato late blight),control of mite ([1]; 600 mg/L),also measured
COC=C(C(=O)OC)c1ccccc1COc1cc(C)nc(Nc2ccccc2)n1 [Compound 19],100%,100%,100%,100%,100%,100%,,control of corn rust (corn rust): 100%; control of cucumber downy mildew (cucumber downy mildew; 25 mg/L): 100%; control of rice blast (rice blast; 2.8 mg/L): 100%
COC=C(C(=O)OC)c1ccccc1COc1cc(C(F)(F)F)nc(Nc2ccccc2)n1 [Compound 20],100%,100%,100%,100%,100%,100%,100%,inhibition activity on carmine spider mite eggs (carmine spider mite eggs; 5 mg/L): 80%; inhibition activity on carmine spider mite eggs (carmine spider mite eggs; 10 mg/L): 100%; control of mite ([1]; 150 mg/L): 100%; control on nymph of carmine spider mite ([2]; 10 mg/L): 90%; control on nymph of carmine spider mite ([2]; 20 mg/L): 100%; control of rice blast (rice blast; 2.8 mg/L): 100%
COC=C(C(=O)OC)c1ccccc1COc1cc(C2CC2)nc(Nc2ccccc2)n1 [Compound 25],100%,100%,100%,about 80%,100%,100%,100%,control of corn rust (corn rust): 100%; control of diamond backmoth [3]: 100%; control of cucumber downy mildew (cucumber downy mildew; 25 mg/L): 100%
COC=C(C(=O)OC)c1ccccc1COc1nc(Nc2ccccc2)nc(C)c1C [Compound 41],100%,100%,100%,about 80%,100%,100%,,control of corn rust (corn rust): 100%; control of cucumber downy mildew (cucumber downy mildew; 25 mg/L): 100%; control of rice blast (rice blast; 2.8 mg/L): about 80%
CO/N=C(/C(=O)OC)c1ccccc1COc1cc(C(F)(F)F)nc(Nc2ccccc2)n1 [Compound 229],,,100%,about 80%,,100%,100%,control of armyworm [4]: 100%
CON=C(C(=O)OC)c1ccccc1COc1cc(C2CC2)nc(Nc2ccccc2)n1 [Compound 232],,100%,100%,about 80%,100%,100%,,
COC(=O)N(OC)c1ccccc1COc1cc(C(F)(F)F)nc(Nc2ccccc2)n1 [Compound 424],,100%,100%,,,100%,,control of armyworm [4]: 100%
CNC(=O)N(OC)c1ccccc1COc1cc(Br)nc(Nc2ccccc2)n1 [Compound 475],,,,about 80%,100%,,,control of armyworm [4]: 100%
COC(=O)N(OC)c1ccccc1COc1cc(C2CC2)nc(Nc2ccccc2)n1 [Compound 664],,,100%,about 80%,100%,100%,,
CNC(=O)C(=NOC)c1ccccc1COc1cc(C2CC2)nc(Nc2ccccc2)n1 [Compound 665],100%,,,about 80%,,,,control of corn rust (corn rust): 100%
CNC(=O)N(OC)c1ccccc1COc1cc(C2CC2)nc(Nc2ccccc2)n1 [Compound 666],,,,100%,,,,
CON=C(C(=O)OC)c1ccccc1COc1nc(Nc2ccccc2)nc(C)c1C [Compound 667],,100%,100%,100%,100%,100%,,control of cucumber grey mold (cucumber grey mold): about 50%; control of diamond backmoth [3]: 100%; control of rice blast (rice blast; 2.8 mg/L): about 80%
COC(=O)N(OC)c1ccccc1COc1nc(Nc2ccccc2)nc(C)c1C [Compound 668],,100%,100%,about 80%,100%,100%,,
CNC(=O)C(=NOC)c1ccccc1COc1nc(Nc2ccccc2)nc(C)c1C [Compound 669],100%,,,,,,,control of corn rust (corn rust): 100%
CNC(=O)N(OC)c1ccccc1COc1nc(Nc2ccccc2)nc(C)c1C [Compound 670],100%,,,about 80%,,,,
CON=C(C(=O)OC)c1ccccc1COc1cc(C)nc(Nc2ccccc2)n1 [Compound 676],,,,100%,,,,control of rice blast (rice blast; 2.8 mg/L): about 80%
COC(=O)N(OC)c1ccccc1COc1cc(C)nc(Nc2ccccc2)n1 [Compound 677],100%,,,100%,,,,
CNC(=O)C(=NOC)c1ccccc1COc1cc(C)nc(Nc2ccccc2)n1 [Compound 678],100%,,,,,,,
COC=C(C(=O)OC)c1ccccc1COc1cc(C(F)(F)F)nc(N(C)C)n1 [Compound 680],,,,,,,,control of wheat powdery mildew (wheat powdery mildew; 25 mg/L): 98%; control of wheat powdery mildew (wheat powdery mildew; 400 mg/L): 100%
COC=C(C(=O)OC)c1ccccc1COc1cc(C(F)(F)F)nc(NC(C)C)n1 [Compound 682],,,,,,,100%,
COC=C(C(=O)OC)c1ccccc1COc1cc(C(F)(F)F)nc(Nc2cccnc2Cl)n1 [Compound 691],,,,,,,100%,control of mite ([1]; 40 mg/L): 100%
COC=C(C(=O)OC)c1ccccc1COc1cc(C(F)(F)F)nc(Nc2ccc(C)cc2C)n1 [Compound 693],,,,,,,100%,
COC=C(C(=O)OC)c1ccccc1COc1cc(C(F)(F)F)nc(Nc2cccc(Cl)c2Cl)n1 [Compound 694],,,,,,,100%,control of mite ([1]; 40 mg/L): 100%
COC=C(C(=O)OC)c1ccccc1COc1cc(C(F)(F)F)nc(Nc2ccc(C)c(C)c2)n1 [Compound 697],,,,,,,100%,
COC=C(C(=O)OC)c1ccccc1COc1cc(C(F)(F)F)nc(NC2CCCCC2)n1 [Compound 701],,,,,,,,control of mite ([1]; 40 mg/L): 100%
